This series in a line: Storage stability of the crystal in a hermetically sealed glass bottle, content (residual percentage) by HPLC. Conditions: for description: appearance. The class given is physicochemical. The procedure: The crystal of a sodium salt obtained in Example 1 (about 5 mg) was served into a colorless glass bottle, the bottle was hermetically sealed by a stopper, and stability of the crystal during storage at 60° C. for 4 weeks was examined. 25 ml of a sample (concentration: about 0.2 mg/ml) was prepared by dissolving the sample after completion of storage in a mobile phase. The sample solution along with a standard solution prepared by using the initial lot (a frozen sample stored for the same term), was analyzed under the HPLC conditions shown below, and the content (residual percentage) was calculated from the peak area obtained.
[HPLC Analytical Conditions]
Detection wavelength: UV 275 nm
Mobile phase: Fluid prepared by adding phosphoric acid to water/acetonitrile/triethylamine (63:37:1) to adjust pH 7
Column temperature: 40° C.
Sample injection volume: 10 μL

With `Cc1c(OCC(F)(F)F)ccnc1C[S@@+]([O-])c1nc2ccccc2[n-]1.[Na+]` [Example 1, sodium salt of (R)-2-[[[3-methyl-4-(2,2,2-trifluoroethoxy)-2-pyridinyl]methyl]sulfinyl]-1H-benzimidazole], the “content (residual percentage)” value is “[100] %” (freeze-storage for the same term (initial lot used as standard)); 99.2% (solid crystal stored at 60° C. (airtight) for 4 weeks, HPLC peak area vs frozen initial lot, listed as crystal of Ex. 1); “exceeding 99%” (solid crystal stored at 60° C. (airtight) for 4 weeks, HPLC peak area vs frozen initial lot, listed as crystal of a sodium salt of R(+)-lansoprazole). Also, the description result reads like this: (freeze-storage) “nearly white”; (solid crystal stored at 60° C. (airtight) for 4 weeks) “nearly white”.

The record behind these values is patent US8809542B2, “Salts of benzimidazole compound and use thereof” (Takeda Pharmaceutical Company Limited, priority 2000, dated 2014).
